Source: US8575135B2 (Gilead Sciences, Inc., priority 2011, dated 2013)
Where two headings read alike, the source gives them in different places.

Key:
Assay in all cases: microbe, parasite or virus in culture
[1] = tested on: 1a Pi-Rluc replicon with Q30R in genotype 1a NS5A; type: cell-based, HCV
Method in brief: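 Q30R introduced by site-directed mutagenesis into genotype 1a Pi-RLuc replicon; RNA transiently transfected into Huh-7-derived cured-51 cells.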

[2] = tested on: stable HCV 2a JFH-1 Rluc replicon cells (L31 present in NS5A); type: cell-based
[3] = tested on: stable HCV 1b RLuc replicon cells (genotype 1b Con1 replicon); type: cell-based
[4] = tested on: stable HCV 1a RLuc replicon cells (genotype 1a H77 replicon); type: cell-based; settings: Hepatitis C virus
[5] = tested on: NS5A chimeric genotype 1b Con1 replicon with genotype 3a S52 strain NS5A gene; type: cell-based, HCV
Method in brief: (§1)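 Con1-based 3a and 4a chimeras carried a Pi-RLuc reporter and were transiently transfected into Huh-Lunet cells; the JFH-1-based 2b chimera (RLuc-Neo) was used transiently or as stable replicon cells.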

[6] = tested on: NS5A chimeric genotype 2a JFH-1 replicon with genotype 2a J6 strain NS5A gene (M31 present); type: cell-based, HCV
[7] = tested on: NS5A chimeric genotype 2a JFH-1 replicon with genotype 2b MD2b-1 strain NS5A gene (M31 present); type: cell-based, HCV
Method in brief: as §1

[8] = tested on: NS5A chimeric genotype 1b Con1 replicon with genotype 4a ED43 strain NS5A gene; type: cell-based, HCV
[9] = Hepatitis C virus, read-out: 1a Q30R
[10] = Hepatitis C virus, read-out: 1a Q30R (nM)
[11] = Hepatitis C virus, read-out: 2a JFH
[12] = Hepatitis C virus, read-out: 2a JFH (nM)
[13] = Hepatitis C virus, read-out: 1b (nM)
[14] = Hepatitis C virus, read-out: 3a
[15] = Hepatitis C virus, read-out: 3a (nM)
[16] = Hepatitis C virus, read-out: 2a J6
[17] = Hepatitis C virus, read-out: 2a J6 (s) (nM)
[18] = Hepatitis C virus, read-out: 2a Jb (t) (nM)
[19] = Hepatitis C virus, read-out: 2b
[20] = Hepatitis C virus, read-out: 2b (s) (nM)
[21] = Hepatitis C virus, read-out: 2b (t) (nM)
[22] = Hepatitis C virus, read-out: 4a
[23] = Hepatitis C virus, read-out: 4a (s) (nM)
[24] = Hepatitis C virus, read-out: 4a (t) (nM)

Row | Compound | EC50 [1, 9] [nM] | EC50 [1, 10] [nM] | EC50 [2, 11] [nM] | EC50 [2, 12] [nM] | EC50 [3, 13] [nM] | EC50 ([4]; read-out: 1a) [nM] | EC50 ([4]; read-out: 1a (nM)) [nM] | EC50 [5, 14] [nM] | EC50 [5, 15] [nM] | EC50 [6, 16] [nM] | EC50 [6, 17] [nM] | EC50 [6, 18] [nM] | EC50 [7, 19] [nM] | EC50 [7, 20] [nM] | EC50 [7, 21] [nM] | EC50 [8, 22] [nM] | EC50 [8, 23] [nM] | EC50 [8, 24] [nM] | further results
1 | COC[C@H]1C[C@@H](c2nc3ccc4cc5c(cc4c3[nH]2)OCc2cc(-c3cnc([C@@H]4CCCN4C(=O)[C@@H](NC(=O)OC)C(C)C)[nH]3)ccc2-5)N(C(=O)[C@H](NC(=O)OC)c2ccccc2)C1 [Example LR-1, methyl{2-[2-{9-[2-(1-{2-[(methoxycarbonyl)amino]-3-methylbutanoyl}pyrrolidin-2-yl)-1H-imidazol-5-yl]-1,11-dihydroisochromeno[4′,3′:6,7]naphtho[1,2-d]imidazol-2-yl}-4-(methoxymethyl)pyrrolidin-1-yl]-2-oxo-1-phenylethyl}carbamate] | < 1 | 0.015 | < 1 | 0.005 | 0.016 | < 1 | 0.011 | < 1 | 0.013 | < 1 | 0.048 | 0.018 | < 1 | 0.024 | 0.01 | < 1 | 0.012 | 0.01 | –
2 | COC[C@H]1C[C@@H](c2nc3ccc4cc5c(cc4c3[nH]2)OCc2cc(-c3cnc([C@@H]4CC6C[C@H]6N4C(=O)[C@@H](NC(=O)OC)C(C)C)[nH]3)ccc2-5)N(C(=O)[C@H](NC(=O)OC)c2ccccc2)C1 (stereo partly drawn) [Example LT, methyl{2-[2-{9-[2-(2-{2-[(methoxycarbonyl)amino]-3-methylbutanoyl}-2-azabicyclo[3.1.0]hex-3-yl)-1H-imidazol-5-yl]-1,11-dihydroisochromeno[4′,3′:6,7]naphtho[1,2-d]imidazol-2-yl}-4-(methoxymethyl)pyrrolidin-1-yl]-2-oxo-1-phenylethyl}carbamate] | < 1 | 0.01 | < 1 | 0.004 | 0.016 | < 1 | 0.009 | < 1 | 0.012 | < 1 | 0.047 | 0.01 | < 1 | 0.039 | 0.009 | < 1 | 0.009 | 0.015 | –
3 | COC(=O)N[C@H](C(=O)N1CCC[C@H]1c1nc2c(ccc3cc4c(cc32)OCc2cc(-c3cnc([C@@H]5CCCN5C(=O)[C@H](NC(=O)OC)c5ccccc5)[nH]3)ccc2-4)[nH]1)C(C)C [Example MD] | < 1 | 0.192 | < 1 | 0.006 | 0.033 | < 1 | 0.035 | < 1 | 0.006 | < 1 | 0.439 | 0.073 | < 1 | 0.038 | 0.016 | < 1 | 0.035 | 0.011 | –
4 | COC(=O)N[C@H](C(=O)N1CCC[C@H]1c1ncc(-c2ccc3c(c2)COc2cc4c(cc2-3)CCc2[nH]c([C@@H]3CCCN3C(=O)[C@@H](NC(=O)OC)C(C)C)nc2-4)[nH]1)C(C)C [Example ME] | 1 to 44 | 2.51 | < 1 | 0.012 | 0.049 | < 1 | 0.033 | < 1 | 0.015 | 1 to 4.99 | 16.1 | 3.43 | < 1 | 0.701 | 0.198 | < 1 | 0.029 | 0.016 | –
5 | COC(=O)N[C@H](C(=O)N1CCC[C@H]1c1nc2c([nH]1)CCc1cc3c(cc1-2)OCc1cc(-c2cnc([C@@H]4CCCN4C(=O)[C@H](NC(=O)OC)c4ccccc4)[nH]2)ccc1-3)C(C)C [Example MF, methyl[1-(2-{5-[2-(1-{[(methoxycarbonyl)amino]-3-methyl-1-oxobutan-2-yl}pyrrolidin-2-yl)-1,4,5,11-tetrahydroisochromeno[4′,3′:6,7]naphtho[1,2-d]imidazol-9-yl]-1H-imidazol-2-yl}pyrrolidin-1-yl)-phenyl-1-oxoacet-2-yl]carbamate] | < 1 | 0.768 | < 1 | 0.012 | 0.058 | < 1 | 0.059 | < 1 | 0.011 | < 1 | 2.14 | 0.476 | < 1 | 0.083 | – | < 1 | – | 0.025 | –
6 | COC(=O)N[C@H](C(=O)N1CCC[C@H]1c1ncc(-c2ccc3c(c2)COc2cc4c(cc2-3)CCc2[nH]c([C@@H]3CCCN3C(=O)[C@H](NC(=O)OC)c3ccccc3)nc2-4)[nH]1)C(C)C [Example MG] | < 1 | 0.663 | < 1 | 0.012 | 0.055 | < 1 | 0.054 | < 1 | 0.01 | < 1 | 2.29 | 0.337 | < 1 | 0.07 | – | < 1 | 0.08 | 0.024 | –
7 | COC[C@H]1C[C@@H](c2ncc(-c3ccc4c(c3)COc3cc5c(ccc6nc([C@@H]7C[C@H]8C[C@H]8N7C(=O)[C@H](NC(=O)OC)c7ccccc7)[nH]c65)cc3-4)[nH]2)N(C(=O)[C@@H](NC(=O)OC)C(C)C)C1 [Example MV] | < 1 | 0.012 | < 1 | 0.004 | 0.014 | < 1 | 0.01 | < 1 | 0.011 | < 1 | 0.034 | 0.047 | < 1 | – | 0.041 | < 1 | 0.011 | – | –
8 | COC[C@H]1C[C@@H](c2nc3ccc4cc5c(cc4c3[nH]2)OCc2cc(-c3cnc([C@@H]4CCCN4C(=O)[C@@H](NC(=O)OC)[C@@H](C)OC)[nH]3)ccc2-5)N(C(=O)[C@H](NC(=O)OC)c2ccccc2)C1 [Example OT, Methyl {(1R)-2-[(2S,4S)-2-(9-{2-[(2S)-1-{(2S,3R)-3-methoxy-2-[(methoxycarbonyl)amino]butanoyl}pyrrolidin-2-yl]-1H-imidazol-5-yl}-1,11-dihydroisochromeno[4′,3′:6,7]naphtho[1,2-d]imidazol-2-yl)-4-(methoxymethyl)pyrrolidin-1-yl]-2-oxo-1-phenylethyl}carbamate] | < 1 | 0.041 | < 1 | 0.005 | 0.02 | < 1 | 0.011 | < 1 | 0.024 | < 1 | – | 0.013 | < 1 | – | 0.012 | – | – | – | –
9 | dimethyl (2S,2′S)-1,1′-((2S,2′S)-2,2′1-pyrrolidin-2-yl)-5H-naphtho[c,g]chromeno[8,9-d]imidazol-9-yl)-1H-imidazol-2-yl)pyrrolidin-1-yl))bis(3-methyl-1-oxobutane-2,1-diyl)dicarbamate [Example MC] | – | – | – | – | – | – | – | – | – | – | – | – | – | – | – | – | – | – | EC50 ([1]; 1a Q30R resistance mutant, EC50 range, read-out: 1a Q30R): < 1 nM; EC50 ([1]; 1a Q30R resistance mutant, read-out: 1a Q30R): 0.99 nM; EC50 ([2]; genotype 2a JFH, EC50 range, read-out: 2a JFH): < 1 nM; EC50 ([2]; genotype 2a JFH, read-out: 2a JFH): 0.004 nM; EC50 ([3]; read-out: 1b): 0.017 nM; EC50 ([5]; genotype 3a, EC50 range, read-out: 3a): < 1 nM; EC50 ([5]; genotype 3a, read-out: 3a): 0.004 nM; EC50 ([6]; genotype 2a J6, EC50 range, transiently transfected cells (t), else stably replicating cells (s), read-out: 2a J6): 1 to 4.99 nM; EC50 ([6]; stably replicating cells (s), read-out: 2a J6 (s)): 3.52 nM; EC50 ([6]; transiently transfected cells (t), read-out: 2a Jb (t)): 1.16 nM; EC50 ([7]; genotype 2b, EC50 range, transiently transfected cells (t), else stably replicating cells (s), read-out: 2b): < 1 nM; EC50 ([7]; stably replicating cells (s), read-out: 2b (s)): 0.375 nM; EC50 ([7]; transiently transfected cells (t), read-out: 2b (t)): 0.162 nM; EC50 ([8]; genotype 4a, EC50 range, transiently transfected cells (t), else stably replicating cells (s), read-out: 4a): < 1 nM; EC50 ([8]; stably replicating cells (s), read-out: 4a (s)): 0.028 nM; EC50 ([8]; transiently transfected cells (t), read-out: 4a (t)): 0.008 nM
